# Marks after values point to notes of the source that are not given here.
# Experiments:
# [1] = tested on: H. nana; assay: Worm burden and worm reduction in H. nana-infected rats; format: in vivo, Hymenolepis nana; settings: for Percentage reduction of worm count: rats; for Worm count: worm numbers per rat, 23rd day, n = 10
# Text: (§1) Mature H. nana worms were gathered from naturally-infected Mus musculus and kept in outbred rats. Thereafter, collection of the eggs was executed from infected rats that were euthanized on day 16th post infection. Infectious shell-free eggs were produced from the gravid segments of adult worms via agitating the egg suspension with 3 mm-diameter glass beads shortly prior to use.
# (§2) The rats were males weighing 120–150 g and were free of parasitic infections. The rats were housed in a specific pathogen-free environment under standard conditions (22 ± 2 °C and 50–60% humidity) and were supplied food and water ad libitum. Rats of groups I-V were inoculated with shell-free eggs via the oral route using a stomach tube. Each animal received 3000 eggs in 0.1 mL of PBS pH 7.4. At day 16th post infection, a fecal examination was carried out and egg count per gram was detected using the McMaster technique. Group I was used as the infected non-treated control group. […] Animals of group VI were used as the non-infected non-treated control group. […] All procedures for agent administration, blood and tissue manipulation were in accordance with the Guide for the Care and Use of Laboratory Animals (8th edition) published in 2011 by the United States National Academy of Sciences.
# On the 23rd day of the experiment, the rats were euthanized and the small intestines were removed. The small intestines were longitudinally dissected and the worm burdens were assessed.
# [2] = tested on: H. nana; assay: Fecal egg count and egg reduction in H. nana-infected rats; format: in vivo, Hymenolepis nana; settings: for Percentage reduction of egg count: 1st and 3rd day after treatment; for Mean egg count, 1st day after treatment / Mean egg count, 3rd day after treatment: fecal egg count per gram (EPG), n = 10
# Text: as §1, §2
# Fecal egg count per gram (EPG) was estimated in the different groups on day 21 and 23 of the experiment. Fecal egg reduction percentage was calculated based on the formula [34]: Fecal egg reduction percentage=EPG before treatment−EPG post treatment/EPG before treatment×100
# [3] = In vitro release, membrane diffusion procedure, with kinetic model fitting; format: physicochemical; settings: PBS pH 7.4 with 0.2% w/v SLS, 37 °C
# Protocol: In triplicate, the release behavior of PRZ from the assembled PMMs was investigated utilizing a type 1, SR 8 Plus USP dissolution tester apparatus (Hanson Research, Chatsworth, Los Angeles, CA, USA) employing the membrane diffusion procedure. […] For establishing the sink condition, 70 mL of phosphate-buffered saline (PBS) comprising 0.2% w/v sodium lauryl sulfate (SLS) was used as the release milieu after adjusting the pH to 7.4 and setting the temperature to 37 ± 0.5 °C [27]. After fixing the filled cylinders to the USP dissolution apparatus shafts, a revolving speed of 50 rpm was applied. About 1-mL aliquots were intermittently pulled out after 0.5, 1, 2, 4, 6, 8, 12 and lastly after 24 h as prescheduled time intervals. In order to maintain the volume of the dissolution milieu at a fixed level, each aspiration was recompensed with a fresh milieu. After applying the appropriate dilution, a spectrophotometer set at λmax 263 was used to quantify PRZ in the collected samples. Afterwards, PRZ accumulative % released, as mean (±SD) values, was graphed versus time. An analogous experimentation was conducted on 2 mL of 1.5 mg/mL free PRZ aqueous suspension for comparative purposes. […] Amplification of the coefficient of determination (R^2) made the grounds for picking the most appropriate arithmetic model.
# [4] = cited from earlier work
# [5] = cited from earlier work; remark: listed apart in the source
# [6] = tested on: H. nana eggs; assay: In vitro ovicidal activity, Fuchsin vital stain; format: cell-based, Hymenolepis nana; settings: PRZ-PMMs finding at 50 µg/mL
# Protocol: Three tubes for each concentration of each formulation were prepared. On clean glass slides, 100 µL of eggs of the different treatments were added and stained with 20 µL of freshly prepared Fuchsin for 10 min and examined under a light microscope.
# [7] = tested on: H. nana; assay: Intestinal histopathology (H&E) in H. nana-infected rats; format: in vivo, Hymenolepis nana
# Protocol: as §2
# Intestines of rats from different groups were gathered and instantly fixed for 24 h in neutrally buffered 10% formalin. Wet tissue sections were dehydrated through a series of alcohols and embedded in paraffin. Serial 4 μm thick cuts were made on all paraffin blocks by rotatory microtome. Thereafter, the cuts were fixed on glass slides and the paraffin was removed. […]
# [8] = Oral pharmacokinetics in rats, LC-MS/MS, non-compartmental analysis; settings: male, Wistar, rat, 12.5 mg/kg
# Protocol: Twelve male Wistar rats (120–150 g), procured from the animal facility of the Research Institute of Ophthalmology (Giza, Egypt), were arbitrarily allocated into two groups of six rats each. The polyacrylic cages, which the rats were lodged in, were maintained under controlled temperature (22 ± 2 °C) and relative humidity (55 ± 5%), in the presence of day and night cycled over 12 h intervals. The animals were provided with tap water ad libitum and standard forage till the night before dosing was commenced so that a 12 h starvation period was allowed. […] Next, centrifugation at 4000 rpm was directly applied to the tubes for 10 min in order to collect plasma. The isolated plasma samples were stored at −20 °C pending assay. The current study was reviewed and approved by our institutional Animal Ethics Committee of Beni-Suef University (protocol approval code: REC-A-PhBSU-20015).
# A liquid chromatography–tandem mass spectrometry (LC–MS/MS) method was employed to assay the gathered plasma samples for PRZ. An Agilent eclipse C18 column (Agilent Technologies, Santa Clara, CA, USA) with the dimensions of 3.5 µm × 4.6 mm × 100 mm was employed for chromatographic separation utilizing the isocratic elution technique. The mobile phase, consisted of methanol and 0.1% formic acid (85:15, v/v), was delivered at a flow rate of 0.8 mL/min (split ratio 1/1). A sample injection volume of 10 µL was utilized. The temperatures of the column and autosampler oven were set to 40 °C and 15 °C, respectively. Electrospray ionization (ESI) in the positive mode was used for the operation of the mass spectrometer. Nitrogen was employed as the auxiliary and nebulizer gas. Source temperature, nebulizer gas, curtain gas and heater gas (i.e., the principal operation parameters) were adjusted at 500 °C, 60 psi, 25 psi and 60 psi, respectively. The ion spray voltage was tuned at 5500 V. Entrance potential, declustering potential, collision energy and collision exit potential (i.e., the compound parameters) were 10, 130, 15, 20 V for PRZ and 10, 91, 29, 12 V for diazepam as an internal standard (IS), respectively. Quantification was performed in the multiple reactions monitoring mode with m/z 313.18 → 203.10 for PRZ and m/z 285.31→193.00 for IS. Operation of the detector was at 1900 V. Analytical data processing was carried out through Analyst software (Version 1.4.2, Applied Biosystems, MDS SCIEX, Concord, ON, Canada).
# A procedure based on liquid–liquid extraction was utilized. Briefly, to a plasma sample (100 µL), 10 µL of IS solution (50 ng/mL) was spiked and 1 mL of methyl-ter-butyl ether was added. The mixture was vortexed for 30 s to ensure homogeneity and then centrifugation at 3000 rpm was applied for 10 min. Into a conical glass tube, the transparent supernatant was transmitted and left at ambient temperature until the organic layer was entirely evaporated. The residues resulting from the evaporation process were then dissolved in the mobile phase and 10 µL of the solution was subsequently injected through the autosampler.
# The non-compartmental pharmacokinetic analysis function built into the Excel Add-In software, PK Solver, was employed to analyze the time course of the PRZ concentration in rat plasma for estimation of pharmacokinetic parameters. The software assesses the maximal drug concentration (Cmax, ng/mL) and elapsed time to attain such concentration (Tmax, h) directly from the plasma concentration–time curve. The software adopts the trapezoidal rule method for quantifying the area under the curve (AUC) from 0 to t (AUC0–t, ng h/mL) and from 0 to infinity (AUC0–∞, ng h/mL).
# [9] = single oral dose 25 mg/kg, 25 mg/kg
# [10] = single oral dose 25 mg/kg, listed as crude PRZ, 25 mg/kg
smiles,measurement,setting,value
"O=C(C1CCCCC1)N1CC(=O)N2CCc3ccccc3C2C1 (stereo not shown) [Crude PRZ, praziquantel]",Percentage reduction of worm count,"[1]; single oral dose 12.5 mg/kg, 12.5 mg/kg",73.3%
same,Percentage reduction of worm count,"[1]; single oral dose 12.5 mg/kg, listed as crude PRZ, 12.5 mg/kg",73.3%
same,Percentage reduction of worm count,[1]; [9],100%
same,Percentage reduction of worm count,[1]; [10],100%
same,Worm count,[1]; single oral dose 12.5 mg/kg,"16.60 ± 1.14 ^a,b,d,e"
same,Worm count,[1]; single oral dose 25 mg/kg,0.00 ± 0.00 ^a
same,Percentage reduction of egg count,[2]; single oral dose 12.5 mg/kg,90.6–91.1%
same,Reduction of eggs output in feces,"[2]; single oral dose 12.5 mg/kg, 21st day",90.6%
same,Reduction of eggs output in feces,"[2]; single oral dose 12.5 mg/kg, 23rd day",91.1%
same,"Mean egg count, 1st day after treatment",[2]; single oral dose 12.5 mg/kg,"1033.20 ± 40.83 ^a,b,d,e"
same,"Mean egg count, 3rd day after treatment",[2]; single oral dose 12.5 mg/kg,"966.60 ± 40.83 ^a,b,d,e"
same,Percentage reduction of egg count,[2]; [9],100%
same,Percentage reduction of egg count,[2]; [10],100%
same,"Mean egg count, 1st day after treatment",[2]; single oral dose 25 mg/kg,"0.00 ± 0.00 ^a,c"
same,"Mean egg count, 3rd day after treatment",[2]; single oral dose 25 mg/kg,"0.00 ± 0.00 ^a,c"
same,Accumulative % released at 1 h,[3],98.81 ± 5.94%
same,Intrinsic hydrosolubility,[4],~ 0.3 mg/mL
same,Terminal half-life,[5],1 to 1.5 h
same,Morphological changes of the eggs,[6],mild shell deformities and embryo damage
same,"Intestinal histopathology, parasitic sections",[7]; 12.5 mg/kg oral,submucosal granulomatous reaction in association with the detected parasitic sections
same,"Intestinal histopathology, parasitic sections",[7]; 25 mg/kg oral,no parasitic sections
same,half-life,[8]; in vivo,1.11 ± 0.04 h
same,AUC(0-inf),[8]; po,566 ± 102 ng·h/mL
same,AUC(0-t),[8]; po,390 ± 95.3 ng·h/mL
same,Cmax,[8]; po,290 ± 28.5 ng/mL
same,MRT,[8]; po,3.05 ± 0.46 h
same,Tmax,[8]; po,0.24 ± 0.03 h
same,k el,[8]; po,0.000173 s⁻¹

# — publication PMC9608995 (Pharmaceutics, 2022)
